Data on three compounds can be found in patent publication US20250032446A1, “METHODS AND COMPOSITIONS FOR THE BIOSYNTHESIS AND USE OF DEMETHYLATED POLYMETHOXY FLAVONES” (RUTGERS, THE STATE UNIVERSITY OF NEW JERSEY, priority 2021, published 2025).

The subject of one data set is 3T3-L1 preadipocytes. The data set can be described thus: MTT assay, pre-confluent cell proliferation. It is filed as cell-based, mouse. On the procedure:
(§1) 3T3-L1 cells were purchased from American Type Culture Collection (ATCC, Rockville, MD) and maintained in MEME media with 10% FBS 1% penicillin/streptomycin (GIBCO, Paisley, UK) in a humidified atmosphere of 5% CO2 in air at 37° C. Cells were passaged by using 0.05% (vol) Trypsin and replated in 55-cm^2 dishes at a density of 1*10^4 cells/cm^2 until confluence.
(§2) For treatment, nobiletin and the mixture of 6- and 7-OH-nobiletin (M67N) in a 1:49 ratio were first dissolved in dimethyl sulphoxide (DMSO) to make stock solution (5 mM to 100 mM). (FIG. 20) The stock solution was then diluted by 1000 times with culture medium to designated concentrations. Cells cultured in full DMEM was set as negative control while cells treated with DM with 0.1% DMSO as positive control.
(§3) 3T3-L1 cells were seeded on 96-well plate at density of 1×10^4 cells/well and incubated overnight for cell attachment. For measuring pre-confluent cell proliferation, cells were cultivated for 36 hours and full MEME with or without nobiletin or M67N was used. For measuring post-confluent cell proliferation during first three days of differentiation, cells were switched to DM with different concentrations of nobiletin or M67N for 72 hours. At the end of each treatment, cells were washed with PBS three times. MTT ([…]) was added at concentration of 0.5 mg/mL to the cells. After a 3-hour incubation, the medium was decanted from each well and 150 μL DMSO was added to dissolve the formed formazan crystals on a shaker. When the crystal was completely dissolved, the absorbance at 570 nm was measured. Cell viability was interpreted as the percentage (%) of the readout of treated cells divided by that of control. Six repeats were carried out for each concentration.
(§4) 3T3-L1 cells were seeded on 96-well plate at density of 1×10^4 cells/well and were incubated overnight for cell attachment. For measuring pre-confluent cell proliferation, full MEME with or without nobiletin or 6-OH-nobiletin, or 7-OH-nobiletin was used and cells were cultivated for 36 hours. For measuring post-confluent cell proliferation during the first three days of differentiation, cells were treated after 2 days of confluence. Specifically, cells were switched to differentiation medium (DM) with different concentrations of targeted compounds for 24 hours. At the end of each treatment, cells were washed with PBS three times followed by the addition of 100 μL MTT at concentration of 0.5 mg/mL. After 3 hours' incubation, the medium in each well were decanted while 150 μL DMSO was added to dissolve the formed formazan crystals at a shaker. When the crystals were completely dissolved, the absorbance of at 590 nm was measured. Cell viability was interpreted as the percentage (%) of the readout of treated cells divided by that of control. Five repeats were carried out for each concentration.

Data set [1] concerns differentiating 3T3-L1 adipocytes. The data set can be described thus: Oil Red O staining, lipid accumulation. It is filed as cell-based, mouse. Conditions: for effect on intracellular lipid accumulation: various concentrations, Oil Red O at day 8. How it is done: Two days after confluence, designated as day 0, adipocyte differentiation was initiated by culturing the cells for three days in differentiation medium (DM) which contained 10 μg/mL insulin, 0.5 mM IBMX, and 1 μM dexamethasone in complete culture medium. At day 3, the medium was replaced with DMEM, containing 10 μg/mL insulin. The medium was changed every two days until day 8. Cells were harvested on day 3 or day 8.
as §2
On day 8, cell layers were washed with 1×PBS and fixed with 10% paraformaldehyde (Sigma, St. Louis, MO, USA). After 15 minutes' fixation, the medium in each well was decanted and placed in a fume hood for complete dryness. Afterwards, cells were subjected to Oil Red O staining for 30 min, which was followed by immediate rinse in water. The intracellular lipid droplets were checked and pictures were captured on Olympus FSX100 Microscope. For the quantification of intracellular lipids, dyes were dissolved in 4% NP-40/isopropanol and the absorbance was measured at 520 nm by a microplate reader.

The nature of data set [2]: Effect of pH of fermented media on extracted content of M2 and M3 (stability). The format is physicochemical. On the procedure: Lastly, the fermented media was adjusted to pH 2.0, 5.0, 6.5, 7.0, 8.0 and 10.0 using HCl or NaOH. Subsequently, 3 extractions were conducted, and the sample was dried, weighed and analyzed using HPLC. The amount of extracted metabolites were compared and used to evaluate the effect of pH on extraction.

A further data set concerns 3T3-L1 cells. Conditions: 3T3-L1 preadipocytes; Hadrich & Sayadi, 2018; cited from earlier work.
The test system of data set [3] is post-confluent 3T3-L1 cells. The note with it: 3T3-L1 preadipocytes; Hadrich & Sayadi, 2018; cited from earlier work.
Data set [4] is described as follows: Water solubility of nobiletin / nobiletin-HMS dispersion. The format is physicochemical. The note with it: 25 °C. How it is done: To check the water solubility of nobiletin in the nobiletin-HMS dispersion system, an excess of the media-milled nobiletin powder was dispersed into distilled water and agitated thoroughly for 24 hours at room temperature to reach full saturation.

The nature of data set [5]: MTT assay, pre-confluent cell proliferation. The format is cell-based, mouse. Conditions: mouse, pre-confluent 3T3-L1 preadipocytes; 100 μM; read-out: cell viability reduced by. On the procedure: as §1, §2, §3, §4
Background: Tetrazolium assays rely on reduction of a dye to a coloured formazan, in cell work by metabolically active cells.

A short description of data set [6]: Solubility of nobiletin in DMSO. The format is physicochemical. Conditions: organic solvent or mixture, read-out: maximal solubility in DMSO.

≈ marks a conversion by molar mass, not a printed value. Entries after “also recorded” stand apart in the source; their conditions may differ.

A word on the solubility: it is how much of the substance goes into solution per volume.

On to `COc1ccc(-c2cc(=O)c3c(OC)c(OC)c(O)c(OC)c3o2)cc1OC` [7-OH-nobiletin, 7-hydroxy-5,6,8,3′,4′-pentamethoxyflavone], for which, in the data set with 3T3-L1 preadipocytes (even at 100 μM), the “effect on cell proliferation” value was “did not present significant effect on cell proliferation”. For the same compound, the “effect on intracellular lipid accumulation” value in data set [1] is listed as “obvious suppressive effect on intracellular lipid accumulation”. Besides, the “total amount of extracted metabolite” value in data set [2] (fermented media at pH 2.0 (first of four values, pH 2.0 to 7.0)) is 46.5 ± 1.3 µg/mL; in data set [2] (fermented media at pH 5.0 (second of four values)) it was 47.5 ± 1.9 µg/mL; in data set [2] (fermented media at pH 6.5 (third of four values)) it was 47.6 ± 0.7 µg/mL; in data set [2] (fermented media at pH 7.0 (fourth of four values)) it was 46.9 ± 1.5 µg/mL. Besides, the “content of extracted metabolite” value is 39.2 ± 1.8 µg/mL in data set [2] (pH 8.0) and 11.7 ± 0.6 µg/mL in data set [2] (pH 10.0). Further, the “stability at alkaline condition” value in data set [2] (pH 8.0 and 10.0) is given as “not stable at alkaline condition”.

As to `O=c1cc(-c2ccc(O)cc2)oc2cc(O[C@@H]3O[C@H](CO)[C@@H](O)[C@H](O)[C@H]3O)cc(O)c12` [apigetrin], in the data set with 3T3-L1 cells, the cell cycle arrest entry was “arrest 3T3-L1 preadipocytes at G1 phase”. For the same compound, the “decrease of cell viability” value in data set [3] is listed as 50%.

For `COc1ccc(-c2cc(=O)c3c(OC)c(OC)c(OC)c(OC)c3o2)cc1OC` [Nobiletin, 5,6,7,8,3′,4′-hexamethoxyflavone, reference compound], the solubility is 9.2 µg/mL (≈ 22.9 µM) in data set [4] and at most 18 mg/mL in data set [6]. Moreover, the “inhibitory effect on the proliferation of preadipocytes” value in the data set on 3T3-L1 preadipocytes (up to 75 μM) was “did not show any inhibitory effect; also recorded: did not demonstrated any inhibition effect”. In addition, the cytotoxicity at 36 h, 100 μM in data set [5] came to 50%. Moreover, the intracellular lipid content in data set [1] (15 μM, relative to positive control) worked out at 101.254±6.096%. Further, the “lipid formation / accumulation reduced to” value in data set [1] (50 μM, relative to positive control) came to 45.2±4.9%. Besides, the inhibition at 50 µM in data set [1] (Mus musculus, 3T3-L1, 50 μM, read-out: reduction of lipid formation / inhibition of lipid accumulation) was 50%. For the same compound, the “effect on intracellular lipid accumulation” value in data set [1] is given as “decreased the intracellular lipid content in a dose-dependent way; also recorded: obvious suppressive effect on intracellular lipid accumulation”.
